Assay results published in paper PMC6152673, “Discovery of Indeno[1,2-c]quinoline Derivatives as Potent Dual Antituberculosis and Anti-Inflammatory Agents” (Molecules : A Journal of Synthetic Chemistry and Natural …, 2017).
≈ marks a conversion by molar mass, not a printed value.

Experiments:
[1] = tested on: M. tuberculosis H37Rv (ATCC 27294); experiment: Anti-Mycobacterium activity, broth microdilution Microplate Alamar Blue Assay (MABA); assay type: cell-based; conditions: MIC = lowest concentration effecting 90% reduction in fluorescence
[2] = tested on: Vero cells; experiment: Vero cell viability (MTT, Promega Cell Titer 96)
[3] = tested on: fMLF-activated human neutrophils (superoxide anion generation); experiment: Superoxide anion generation in fMLF-activated human neutrophils; assay type: cell-based; conditions: for IC50: Neutrophil, fMLF/cytochalasin B-activated human neutrophils, mean ± SEM (n = 3); for Inhibitory effect on superoxide anion generation (in words): fMLF-activated human neutrophils
Experimental: (§1) Superoxide generation and elastase release were carried out according to the procedures described previously. Neutrophils (6 × 10^5/mL) were equilibrated at 37 °C for 2 min and incubated with compounds for 5 min. Neutrophils were then activated by fMLF (100 nM) in the pretreatment of cytochalasin B (1 µg/mL for superoxide generation and 0.5 µg/mL for elastase release) for 10 min. Superoxide anion production was assayed by monitoring the superoxide dismutase-inhibitable reduction of ferricytochrome C. Elastase release was performed using MeO-Suc-Ala-Ala-Pro-Valp-nitroanilide as the elastase substrate.

[4] = tested on: fMLF-activated human neutrophils (neutrophil elastase release); experiment: Neutrophil elastase release in fMLF-activated human neutrophils; assay type: cell-based; conditions: for IC50: Neutrophil, fMLF/cytochalasin B-activated human neutrophils, mean ± SEM (n = 3); for Inhibitory effect on NE release (in words): fMLF-activated human neutrophils
Experimental: as §1

NNC(=O)c1ccncc1 [INH, isoniazid, reference compound]
MIC [1]: 0.8 to 1.2 µg/mL (≈ 5.83 to 8.75 µM)
Survival Rate of Vero Cells @ 20 μg/mL [2]: 84.80%

COc1ccc2c(c1)C(=O)c1c-2c(N2CCC(O)CC2)nc2ccccc12 [Compound 4d, 6-(4-Hydroxypiperidin-1-yl)-9-methoxy-11H-indeno[1,2-c]quinolin-11-one]
MIC [1]: 7.74 µg/mL (≈ 21.5 µM)
IC50 [3]: 2820 ± 300 nM
IC50 [4]: 2050 ± 240 nM
Survival Rate of Vero Cells @ 20 μg/mL [2]: 84.72%

O=C(N/N=C1\c2ccccc2-c2c(N3CCC(O)CC3)nc3ccccc3c21)c1ccccc1 [Compound 11, (E)-N′-[6-(4-Hydroxypiperidin-1-yl)-11H-indeno[1,2-c]quinolin-11-ylidene]benzohydrazide]
MIC [1]: 1.98 µg/mL (≈ 4.41 µM)
IC50 [3]: 1670 ± 870 nM
IC50 [4]: > 10000 nM
Inhibitory effect on NE release (in words) [4]: inactive
Survival Rate of Vero Cells @ 20 μg/mL [2]: 89.55%
melting point: 258 to 259 °C

O=C1c2ccccc2-c2c(N3CCOCC3)nc3ccccc3c21 [Compound 3c, 6-(Morpholino-1-yl)-11H-indeno[1,2-c]quinolin-11-one]
MIC [1]: 3.12 µg/mL (≈ 9.86 µM)
IC50 [3]: > 10000 nM
IC50 [4]: > 10000 nM
Survival Rate of Vero Cells @ 20 μg/mL [2]: 91.19%
melting point: 171 to 173 °C

NC(=O)N/N=C1\c2ccccc2-c2c(N3CCC(O)CC3)nc3ccccc3c21 [Compound 9, (E)-2-[6-(4-Hydroxypiperidin-1-yl)-11H-indeno[1,2-c]quinolin-11-ylidene]hydrazine Carboxamide]
MIC [1]: > 20 µg/mL
IC50 [3]: 3640 ± 1430 nM
IC50 [4]: > 10000 nM
Survival Rate of Vero Cells @ 20 μg/mL [2]: 81.20%
melting point: 289 to 290 °C

OC1CCN(c2nc3ccccc3c3c2-c2ccccc2C3)CC1 [Compound 5, 1-(11H-Indeno[1,2-c]quinolin-6-yl)piperidin-4-ol]
MIC [1]: 18 µg/mL (≈ 56.9 µM)
IC50 [3]: 4020 ± 1080 nM
Inhibitory effect on superoxide anion generation (in words) [3]: weakly active
IC50 [4]: 5290 ± 480 nM
Inhibitory effect on NE release (in words) [4]: weakly active
Survival Rate of Vero Cells @ 20 μg/mL [2]: 85.41%

COc1ccc2c(c1)C(=O)c1c-2c(N2CCC(CO)CC2)nc2ccccc12 [Compound 4f, 6-[4-(Hydroxymethyl)piperidin-1-yl]-9-methoxy-11H-indeno[1,2-c]quinolin-11-one]
MIC [1]: > 20 µg/mL
IC50 [3]: 1930 ± 920 nM
IC50 [4]: 880 ± 300 nM
Survival Rate of Vero Cells @ 20 μg/mL [2]: 90.26%
melting point: 218 to 219 °C

O=C1c2ccccc2-c2c(N3CCCC3)nc3ccccc3c21 [Compound 3a, 6-(Pyrrolidin-1-yl)-11H-indeno[1,2-c]quinolin-11-one]
MIC [1]: 4.56 µg/mL (≈ 15.2 µM)
IC50 [3]: > 10000 nM
IC50 [4]: > 10000 nM
Survival Rate of Vero Cells @ 20 μg/mL [2]: 88.61%
melting point: 163 to 164 °C

O=C1c2ccccc2-c2c(N3CCC(O)CC3)nc3ccccc3c21 [Compound 3d, 6-(4-Hydroxypiperidin-1-yl)-11H-indeno[1,2-c]quinolin-11-one]
MIC [1]: 2.09 µg/mL (≈ 6.33 µM)
IC50 [3]: 1780 ± 440 nM
IC50 [4]: 2200 ± 690 nM
Survival Rate of Vero Cells @ 20 μg/mL [2]: 91.23%
melting point: 208 °C

O=C1c2ccccc2-c2c(N3CCC(CO)CC3)nc3ccccc3c21 [Compound 3f, 6-(4-Piperidinemethano-1-yl)-11H-indeno[1,2-c]quinolin-11-one]
MIC [1]: 3.98 µg/mL (≈ 11.6 µM)
IC50 [3]: 3370 ± 170 nM
IC50 [4]: 4500 ± 1320 nM
Survival Rate of Vero Cells @ 20 μg/mL [2]: 91.11%
melting point: 223 to 224 °C

O=C1c2ccccc2-c2c(N3CCCCC3)nc3ccccc3c21 [Compound 3b, 6-(Piperidin-1-yl)-11H-indeno[1,2-c]quinolin-11-one]
MIC [1]: 4.93 µg/mL (≈ 15.7 µM)
IC50 [3]: > 10000 nM
IC50 [4]: > 10000 nM
Survival Rate of Vero Cells @ 20 μg/mL [2]: 96.18%
melting point: 165 to 166 °C

COc1ccc2c(c1)C(=O)c1c-2c(N2CCOCC2)nc2ccccc12 [Compound 4c]
MIC [1]: > 20 µg/mL
IC50 [3]: > 10000 nM
IC50 [4]: > 10000 nM
Survival Rate of Vero Cells @ 20 μg/mL [2]: 94.47%

CC1(O)c2ccccc2-c2c(N3CCC(O)CC3)nc3ccccc3c21 (centres unmarked) [Compound 6, 6-(4-Hydroxypiperidin-1-yl)-11-methyl-11H-indeno[1,2-c]quinolin-11-ol]
MIC [1]: > 20 µg/mL
IC50 [3]: > 10000 nM
Inhibitory effect on superoxide anion generation (in words) [3]: inactive
IC50 [4]: > 10000 nM
Inhibitory effect on NE release (in words) [4]: inactive
Survival Rate of Vero Cells @ 20 μg/mL [2]: 89.83%
melting point: 146 to 147 °C

O=C1c2ccccc2-c2c(N3CCCC(CO)C3)nc3ccccc3c21 (centres unmarked) [Compound 3g, 6-(3-Piperidinemethano-1-yl)-11H-indeno[1,2-c]quinolin-11-one]
MIC [1]: 3.07 µg/mL (≈ 8.91 µM)
IC50 [3]: 2770 ± 470 nM
IC50 [4]: 2120 ± 1190 nM
Survival Rate of Vero Cells @ 20 μg/mL [2]: 92.25%
melting point: 220 to 221 °C

COc1ccc2c(c1)C(=O)c1c-2c(N2CCCCC2)nc2ccccc12 [Compound 4b]
MIC [1]: > 20 µg/mL
IC50 [3]: > 10000 nM
IC50 [4]: > 10000 nM
Survival Rate of Vero Cells @ 20 μg/mL [2]: 99.55%

CO/N=C1\c2ccccc2-c2c(N3CCC(O)CC3)nc3ccccc3c21 [Compound 8, (E)-6-(4-Hydroxypiperidin-1-yl)-11H-indeno[1,2-c]quinolin-11-one O-methyl Oxime]
MIC [1]: > 20 µg/mL
IC50 [3]: 2680 ± 950 nM
Inhibitory effect on superoxide anion generation (in words) [3]: comparable anti-inflammatory activity
IC50 [4]: 2130 ± 920 nM
Inhibitory effect on NE release (in words) [4]: comparable anti-inflammatory activity
Survival Rate of Vero Cells @ 20 μg/mL [2]: 91.48%
melting point: 183 to 184 °C

O=C1c2ccccc2-c2c(N3CCCC(O)C3)nc3ccccc3c21 (centres unmarked) [Compound 3e, 6-(3-Hydroxypiperidin-1-yl)-11H-indeno[1,2-c]quinolin-11-one]
MIC [1]: 4.97 µg/mL (≈ 15 µM)
IC50 [3]: 2900 ± 110 nM
IC50 [4]: 2800 ± 90 nM
Survival Rate of Vero Cells @ 20 μg/mL [2]: 87.78%
melting point: 211 to 212 °C

NC(=S)N/N=C1\c2ccccc2-c2c(N3CCC(O)CC3)nc3ccccc3c21 [Compound 10, (E)-2-[6-(4-Hydroxypiperidin-1-yl)-11H-indeno[1,2-c]quinolin-11-ylidene]hydrazine Carbothioamide]
MIC [1]: > 20 µg/mL
IC50 [3]: 2410 ± 360 nM
IC50 [4]: > 10000 nM
Survival Rate of Vero Cells @ 20 μg/mL [2]: 80.28%
melting point: 304 to 305 °C

COc1ccc2c(c1)C(=O)c1c-2c(N2CCCC(CO)C2)nc2ccccc12 (centres unmarked) [Compound 4g, 6-[3-(Hydroxymethyl)piperidin-1-yl]-9-methoxy-11H-indeno[1,2-c]quinolin-11-one]
MIC [1]: > 20 µg/mL
IC50 [3]: 680 ± 140 nM
IC50 [4]: 460 ± 80 nM
Survival Rate of Vero Cells @ 20 μg/mL [2]: 87.60%
melting point: 243 to 244 °C

COc1ccc2c(c1)C(=O)c1c-2c(N2CCCC(O)C2)nc2ccccc12 (centres unmarked) [Compound 4e, 6-(3-Hydroxypiperidin-1-yl)-9-methoxy-11H-indeno[1,2-c]quinolin-11-one]
MIC [1]: 19.1 µg/mL (≈ 53 µM)
IC50 [3]: 1890 ± 650 nM
IC50 [4]: 2930 ± 700 nM
Survival Rate of Vero Cells @ 20 μg/mL [2]: 87.59%
melting point: 191 to 192 °C

O/N=C1\c2ccccc2-c2c(N3CCC(O)CC3)nc3ccccc3c21 [Compound 7, (E)-6-(4-Hydroxypiperidin-1-yl)-11H-indeno[1,2-c]quinolin-11-one Oxime]
MIC [1]: > 20 µg/mL
IC50 [3]: 830 ± 470 nM
Inhibitory effect on superoxide anion generation (in words) [3]: comparable anti-inflammatory activity
IC50 [4]: 1390 ± 640 nM
Inhibitory effect on NE release (in words) [4]: comparable anti-inflammatory activity
Survival Rate of Vero Cells @ 20 μg/mL [2]: 84.14%
melting point: 155 to 156 °C

O=C(N/N=C1\c2ccccc2-c2c(N3CCC(O)CC3)nc3ccccc3c21)c1ccncc1 [Compound 12, (E)-N′-[6-(4-Hydroxypiperidin-1-yl)-11H-indeno[1,2-c]quinolin-11-ylidene]isonicotino Hydrazide]
MIC [1]: 0.96 µg/mL (≈ 2.14 µM)
IC50 [3]: 1720 ± 230 nM
IC50 [4]: 1760 ± 490 nM
Survival Rate of Vero Cells @ 20 μg/mL [2]: 94.25%
melting point: 282 to 283 °C

COc1ccc2c(c1)C(=O)c1c-2c(N2CCCC2)nc2ccccc12 [Compound 4a, 9-Methoxy-6-(pyrrolidin-1-yl)-11H-indeno[1,2-c]quinolin-11-one]
MIC [1]: 17 µg/mL (≈ 51.5 µM)
IC50 [3]: > 10000 nM
IC50 [4]: > 10000 nM
Survival Rate of Vero Cells @ 20 μg/mL [2]: 89.62%
